The subject of experiment [1] is reserpine-induced blepharospasm. Nature of the experiment: Anti-reserpine activity: prevention of reserpine-induced blepharospasm. Type of experiment: in vivo, mice. As to conditions: Mus musculus, 1 h; oral, 30 min before reserpine 2.5 mg/kg endoperitoneally; scored one hour after reserpine; dose reducing symptoms by 50% vs control. The source says: (§1) 1-oxo-1H-naphtho[2,1-b]pyran derivatives as well as the pharmaceutical compositions containing them, being the object of the present invention, are active on the central nervous system as antidepressive agents. The antidepressive activity of the compounds of the invention, evaluated in mice from the prevention of reserpine-induced blepharospasm and hypothermia, is shown in the following Table, where the antireserpine effect is indicated as ED50 values, that is, doses able to prevent reserpine-induced blepharospasm and hypothermia by reducing symptoms of 50% if compared with the values obtainable in control animals.
(§2) Reserpine was administered endoperitoneally at a dosage of 2.5 mg/kg, and the compounds tested were administered orally 30 minutes before administration of reserpine. Recording of blepharospasm (evaluated in scores according to the technique described by Rubin B. et al in J. Pharmacol. 120, 125, 1957) and measurement of body temperature (by means of a rectal thermocouple […]) were taken an hour, and respectively, four hours after the administration of reserpine. In particular, the compounds object of the present invention not only allow to obtain a lower general toxicity in comparison with standard antidepressive agents, but also a lower cardiac toxicity as well as the lack of peripheral atropine effects.

Experiment [2] has as its system reserpine-induced hypothermia. Nature of the experiment: Anti-reserpine activity: prevention of reserpine-induced hypothermia. Type of experiment: in vivo, mice. As to conditions: Mus musculus, 4 h; oral, 30 min before reserpine 2.5 mg/kg endoperitoneally; rectal temperature four hours after reserpine; dose reducing symptoms by 50% vs control.
Text: as §1, §2

The structures appear in SMILES notation.

For the molecule `CCN(C)c1cc(=O)c2c(ccc3ccccc32)o1` [1-oxo-3-(N-methyl-N-ethyl)amino-1H-naphtho[2,1-b]pyran], the results for the ED50 in experiment [1] and in experiment [2] were 4 mg/kg and 15 mg/kg, respectively.
For `CN(C)c1cc(=O)c2c(ccc3ccccc32)o1` [1-oxo-3-dimethylamino-1H-naphtho[2,1-b]pyran], in that order: 8.7 mg/kg and 21 mg/kg.

The term ED50 denotes the dose at which the effect has come halfway, by size or by number of responders. A higher ED50 goes with a need for a large dose.

Values taken from patent US4001424A, “1-Oxo-1H-naphtho [2,1-b] pyran derivatives for treating depression” (Carlo Erba S.p.A., priority 1973, dated 1977).
